Laboratory results from patent publication US9714249B2 (Novartis AG, priority 2013, dated 2017).

How the values were obtained:
BRD4 (His-Brd4(44-477)) = BRD4 (His-Brd4(44-477)) (Homo sapiens (Human), UniProt O60885); assay: TR-FRET in-vitro binding assay for BRD4; conditions: acetyl-histone H4 peptide
Description: All assays were performed in 384 well microtiter plates. Each assay plate contained 8-point serial dilutions for 40 test compounds, plus 16 high- and 16 low controls. Liquid handling and incubation steps were done on an Innovadyne Nanodrop Express equipped with a robotic arm (Thermo CatX, Perkin Elmer/Caliper Twister II) and an incubator (Liconic STX40, Thermo Cytomat 2C450). The assay plates were prepared by addition of 50 nl per well of compound solution in 90% DMSO HummingBird nanodispenser (Zinsser Analytic). […] Reactions were incubated at 30° C. for 35 minutes. […] After 35 minutes incubation at 30° C., plates were measured in a Perkin Elmer EnVision multilabel reader.
Test compounds were dissolved in DMSO (10 mM) and transferred into 1.4 mL flat bottom or V-shaped Matrix tubes carrying a unique 2D matrix. The stock solutions were stored at […] if not used immediately. For the test procedure the vials were defrosted and identified by a scanner whereby a working sheet was generated that guided the subsequent working steps. Compound dilutions were made in 96 well plates. This format enabled the assay of maximally 40 individual test compounds at 8 concentrations (single points) including 4 reference compounds, if desired (known BET inhibitors from the prior art, for this and other assays of the type disclosed herein). The dilution protocol included the production of “pre-dilution plates”, “master plates” and “assay plates”.
Pre-dilution plates: 96 polypropylene well plates were used as pre-dilution plates. A total of 4 pre-dilution plates were prepared including 10 test compounds each on the plate positions A1-A10, one standard compound at A11 and one DMSO control at A12. All dilution steps were done on a HamiltonSTAR robot. […] These plates were used directly for the assay which was performed in a total volume of 13.55 μL. […] Cell Growth Inhibition Assay

[1] = biological target: CREBBP bromodomain (His-CREBBP (1081-1197)) (Homo sapiens (Human), UniProt Q92793); assay: AlphaScreen in-vitro binding assay for CREBBP; conditions: acetyl-histone H4 peptide
MV-4-11 cells = assay: Cell growth inhibition assay (CellTiter-Glo), MV-4-11; type: cell-based, human; conditions: MV-4-11, 4 days; for GI50: Homo sapiens, MV4-11, 96 h, half-maximal growth inhibition; for MV-4-11 TGI: total growth inhibition
Outline: (§1)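 Growth of each leukemia line in its own serum-containing medium was measured by CellTiter-Glo ATP luminescence after 4 days at 37 °C with 3-fold serial dilutions starting at 10 μM (0.1% DMSO). Readings were corrected for background and day 0, scaled so that vehicle is 100% and medium-only is −100%, and 4-parameter fits gave IC50 and TGI.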

THP-1 cells = assay: Cell growth inhibition assay (CellTiter-Glo), THP-1; type: cell-based, human; conditions: THP-1, 4 days; for GI50: Homo sapiens, 96 h, half-maximal growth inhibition; for THP-1 TGI: total growth inhibition
Outline: as §1

CREBBP bromodomain (His-CREBBP (1081-1197)), sequence (Q92793 1081-1197): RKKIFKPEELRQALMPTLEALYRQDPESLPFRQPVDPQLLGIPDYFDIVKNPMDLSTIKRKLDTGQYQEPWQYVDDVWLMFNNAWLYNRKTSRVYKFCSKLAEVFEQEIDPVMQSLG

| IC50 (BRD4 (His-Brd4(44-477))) [nM] | IC50 [1] [µM] | GI50 (MV-4-11 cells) [nM] | GI50 (THP-1 cells) [nM] | Structure (SMILES) | MV-4-11 TGI (MV-4-11 cells) [µM] | THP-1 TGI (THP-1 cells) [µM] |
| --- | --- | --- | --- | --- | --- | --- |
| 62 | 2 | 49.6 | 104 | COc1ccc(-n2nc3c(c2C)C(=O)N(c2cc(C)c(=O)n(C)c2)C3c2ccc(Cl)cc2)cn1 (stereo not drawn) [Example 20a, 6-(4-chlorophenyl)-5-(1,5-dimethyl-6-oxo-1,6-dihydropyridin-3-yl)-2-(6-methoxypyridin-3-yl)-3-methyl-5,6-dihydropyrrolo[3,4-c]pyrazol-4(2H)-one] | 0.065 | 0.178 |
| 100 | 3.8 | 50.5 | 91 | Cc1nn(-c2cccnc2F)c2c1C(=O)N(c1cc(C)c(=O)n(C)c1)C2c1ccc(Cl)cc1 (stereo not drawn) [Example 19, 6-(4-chlorophenyl)-5-(1,5-dimethyl-6-oxo-1,6-dihydropyridin-3-yl)-1-(2-fluoropyridin-3-yl)-3-methyl-5,6-dihydropyrrolo[3,4-c]pyrazol-4(1H)-one] | 0.0798 | 0.164 |
| 110 | 4.7 | 105 | 209 | COc1ncc(-n2nc3c(c2C)C(=O)N(c2cc(C)c(=O)n(C)c2)C3c2ccc(Cl)cc2)cn1 (stereo not drawn) [Example 21b, 6-(4-chlorophenyl)-5-(1,5-dimethyl-6-oxo-1,6-dihydropyridin-3-yl)-2-(2-methoxypyrimidin-5-yl)-3-methyl-5,6-dihydropyrrolo[3,4-c]pyrazol-4(2H)-one] | 0.208 | 0.396 |
| 14 | 3 | 20.5 | 45.6 | COCCn1nc(C2CC2)c2c1C(c1ccc(Cl)cc1)N(c1cc(C)c(=O)n(C)c1)C2=O (stereo not drawn) [Example 4, 6-(4-chlorophenyl)-3-cyclopropyl-5-(1,5-dimethyl-6-oxo-1,6-dihydropyridin-3-yl)-1-(2-methoxyethyl)-5,6-dihydropyrrolo[3,4-c]pyrazol-4(1H)-one] | 0.0336 | 0.1 |
| 56 | 1.3 | 27 | 72.4 | COc1ncccc1-n1nc2c(c1C)C(=O)N(c1cc(C)c(=O)n(C)c1)C2c1ccc(Cl)cc1 (stereo not drawn) [Example 17b, 6-(4-chlorophenyl)-5-(1,5-dimethyl-6-oxo-1,6-dihydropyridin-3-yl)-2-(2-methoxypyridin-3-yl)-3-methyl-5,6-dihydropyrrolo[3,4-c]pyrazol-4(2H)-one] | 0.0343 | 0.117 |
| 67 | 1.4 | 19.1 | 62.2 | Cc1nn(C(C)C)c2c1C(=O)N(c1cc(C)c(=O)n(C)c1)C2c1ccc(Cl)cc1 (stereo not drawn) [Example 12, 6-(4-chlorophenyl)-5-(1,5-dimethyl-6-oxo-1,6-dihydropyridin-3-yl)-1-isopropyl-3-methyl-5,6-dihydropyrrolo[3,4-c]pyrazol-4(1H)-one] | 0.0374 | 0.112 |

| Structure (SMILES) | IC50 (BRD4 (His-Brd4(44-477))) [nM] | IC50 [1] [µM] | GI50 (MV-4-11 cells) [nM] | GI50 (THP-1 cells) [nM] | MV-4-11 TGI (MV-4-11 cells) [µM] | THP-1 TGI (THP-1 cells) [µM] |
| --- | --- | --- | --- | --- | --- | --- |
| COc1ncc(-n2nc(C)c3c2C(c2ccc(Cl)cc2)N(c2cc(Cl)c(=O)n(C)c2)C3=O)cn1 (stereo not drawn) [Example 8a, 5-(5-chloro-1-methyl-6-oxo-1,6-dihydropyridin-3-yl)-6-(4-chlorophenyl)-1-(2-methoxypyrimidin-5-yl)-3-methyl-5,6-dihydropyrrolo[3,4-c]pyrazol-4(1H)-one] | 170 | > 37 | 141 | 127 | 0.294 | 0.493 |
